Experimental data reported in patent KR20170075293A, “피부 개선용 조성물” (주식회사 엘지생활건강, priority 2015, dated 2017).

Experiments:
Assay type in all cases: cell-based
[1] = tested on: HAS-3; experiment: HAS-3 mRNA expression in human keratinocytes (real time PCR); conditions: Keratinocyte, 24 h, untreated negative control = 100%, GAPDH reference, n = 4, read-out: HAS-3 expression amount
[2] = tested on: HAS-2; experiment: HAS-2 mRNA expression in human keratinocytes (real time PCR); conditions: Keratinocyte, 24 h, untreated negative control = 100%, GAPDH reference, n = 4, read-out: HAS-2 expression amount
[3] = tested on: mouse melanoma cells [쥐의 멜라노마 세포(B-16 mouse melanoma cell)]; experiment: Inhibition of melanin production in B-16 mouse melanoma cells; conditions: relative to control; for inhibition rate (melanin production): 3 days, absorbance at 400 nm per 10^6 cells, n = 3
[4] = tested on: sulfated glycosaminoglycan [황산화 글리코사미노글리칸], human fibroblast [인간 유래 섬유아세포]; experiment: Sulfated glycosaminoglycan synthesis in human fibroblasts (Blyscan kit); conditions: 24 h; for sulfated glycosaminoglycan production amount: n = 4
[5] = tested on: collagen type I [콜라겐 타입 I], human fibroblast [인간 유래 섬유아세포]; experiment: Collagen type I synthesis in human fibroblasts (PICP EIA kit); conditions: 48 h, n = 4

N[C@H]1C(O)O[C@H](CO)[C@@H](O)[C@@H]1O (stereo partly shown) [글루코사민, reference compound]
activity at 100 ppm ([1]; 100 ppm): 125%
activity at 100 ppm ([2]; 100 ppm): 114%

COc1cc2ccc(=O)oc2c(OC)c1O [이소프락시딘, Isofraxidin]
inhibition rate (melanin production) ([3]; 1 ㎍/ml): 29.1%
inhibition rate (melanin production) ([3]; 10 ㎍/ml): 34.9%
inhibition rate of melanin production (summary statement) ([3]; concentration not given): ≥ 25%
sulfated glycosaminoglycan production amount ([4]; 1 ㎍/ml): 0.50 ng/mL
sulfated glycosaminoglycan production amount ([4]; 10 ㎍/ml): 1.64 ng/mL
sulfated glycosaminoglycan production amount ([4]; 20 ㎍/ml): 2.98 ng/mL
activation at 20 µg/mL ([4]; Homo sapiens, Fibroblast, 20 ㎍/ml, relative to untreated control (0.46 ng/ml), n = 4, read-out: sulfated glycosaminoglycan production increase rate): 548%
collagen production amount ([5]; 10 ㎍/ml): 304 ng/mL
collagen production amount ([5]; 20 ㎍/ml): 370 ng/mL
activity at 1 ppm ([1]; 1 ppm): 126%
activity at 10 ppm ([1]; 10 ppm): 151%
activity at 1 ppm ([2]; 1 ppm): 122%
activity at 10 ppm ([2]; 10 ppm): 135%

OC[C@H]1O[C@@H](Oc2ccc(O)cc2)[C@H](O)[C@@H](O)[C@@H]1O [알부틴, Arbutin, reference compound]
inhibition rate (melanin production) ([3]; 200 ㎍/ml): 31.3%
